This is an account of results in patent US11938212B2, “Skin care compositions” (Colgate-Palmolive Company, priority 2022, dated 2024).

Experiment [1] deals with human derived keratinocytes. The experiment in a line: ROS detection in H2O2-treated human derived keratinocytes (Example 3: alpha-tocopherol, EGT, niacinamide). As to conditions: alpha-tocopherol 0.001% as printed, EGT 0.01%, niacinamide 0.01%; for % Decrease in ROS generated in keratinocyte by antioxidant treatment: 0.3 wt.% H2O2; for Fold Change, decrease in ROS generated in keratinocyte by antioxidant treatment (relative to untreated): vs F (0.1% DMSO + 0.3% H2O2). Format: cell-based. The protocol:
Hydrogen peroxide treated cells were then treated with: alpha-tocopherol, ergothioneine and niacinamide, respectively and in combination.
Cellular ROS/Superoxide Detection Assay Kit (Abcam—ab139476)

Experiment [2] has as its system human derived keratinocytes. The experiment in a line: ROS detection in H2O2-treated human derived keratinocytes (Example 2: alpha-tocopherol, EGT, sodium PCA). The conditions noted are these: vs F (0.1 wt.% DMSO + 0.3 wt.% H2O2); alpha-tocopherol 0.001%, EGT 0.01%, Na PCA 0.01%; 30 min treatment.
Protocol: Keratinocytes were treated with exogenous 0.3 wt. % hydrogen peroxide to induce reactive oxygen species (ROS) production. […] Changes in ROS production were assessed using a ROS Detection Assay Kit and fluorescence microplate reader.
Cell Culture Treatment • 500 uL of each treatment sample was directly applied to the 24-well plates and incubated for 30 mins. • Post incubation: each well was washed with the wash buffer (1×) provided. • 250 uL of green Fluorescent (GF) dye containing media (2.5 uL of GF dye/250 uL of media) was then added to each well and incubate for 60 mins. • Post incubation, Fluorescence was read on a microplate reader at 490/525.

For `C[N+](C)(C)[C@@H](Cc1c[nH]c(=S)[nH]1)C(=O)[O-]` [EGT, Ergothioneine], in experiment [1], the “% Decrease in ROS generated in keratinocyte by antioxidant treatment” value (from here on “% Decrease in ROS generated”) was 15.91% and the “Fold Change, decrease in ROS generated in keratinocyte by antioxidant treatment (relative to untreated)” value (from here on “Fold Change, decrease … (relative to untreated)”) is 0.31-fold fold decrease. Besides, the “Fold Change, decrease … (relative to untreated)” value in experiment [2] is on record as 4.43-fold decrease.
With `Cc1c(C)c2c(c(C)c1O)CC[C@@](C)(CCC[C@H](C)CCC[C@H](C)CCCC(C)C)O2` [Alpha-tocopherol, alpha-tocopherol], in experiment [1], the “% Decrease in ROS generated” value is on record as 20.79% and the “Fold Change, decrease … (relative to untreated)” value was 0.4-fold fold decrease. The “Fold Change, decrease … (relative to untreated)” value in experiment [2] was 4.21-fold decrease.
`O=C1CCC(C(=O)[O-])N1.[Na+]` (stereo not drawn) [Na PCA, sodium pyrrolidone carboxylic acid]: in experiment [1], the “% Decrease in ROS generated” value is given as 25.75%. Besides, in experiment [2], the “Fold Change, decrease … (relative to untreated)” value is 2.25-fold decrease.
Turning to `NC(=O)c1cccnc1` [Niacinamide, niacinamide], the “Fold Change, decrease … (relative to untreated)” value in experiment [1] is 0.24-fold fold decrease.
